{"source": "paper PMC6747015", "about": "“Structure–function study of a novel inhibitor of the casein kinase 1 family in Arabidopsis thaliana” (Plant Direct, 2019)", "key": {"PRR7": {"test_system": "PRR7", "assay": "RT-qPCR of the CK1 downstream gene PRR7", "assay_type": "in vivo, Arabidopsis", "settings": "10 and 50 µM, 6 hr", "method": "Arabidopsis Col‐0 seedlings that had been grown under constant light conditions for […] were immersed in 10 or 50 µM of the GSK‐3, SHAGGY‐related, and BIN2 kinase inhibitor Bikinin (SML0094, Sigma) (De Rybel et al., 2009), […], or DMSO as control for 6 hr. Three biological replicates were used for each assay. Harvested seedlings were frozen in liquid nitrogen and crushed with zirconia beads in a Tissue Lyser II, and RNA was isolated with Illustra RNAspin (25‐0500‐72, GE Healthcare). RT‐qPCR was performed as described previously (Nakamichi et al., 2010) using an Eco Real‐Time PCR System (Illumina). Gene expression was normalized against IPP2, and maximal values were set to 1. Primers for detecting IPP2, PRR7, GR60ox2, and CPD were described previously (De Rybel et al., 2009; Kamioka et al., 2016).\nBecause the ATSK family was identified by the molecular probe assay as potential targets of AMI‐331, even though the affinities between AMI‐331 and ATSKs were not as high as between AMI‐331 and CK1, we used the ATSK inhibitor Bikinin to determine if AMI‐331 treatment affects the expression of genes downstream of ATSKs (De Rybel et al., 2009). Four‐day‐old Arabidopsis seedlings grown under constant light conditions were treated with Bikinin or AMI‐331 for 6 hr, and mRNA extracted from seedlings samples was analyzed by RT‐qPCR."}, "GR60ox2 and CPD": {"test_system": "GR60ox2 and CPD", "assay": "RT-qPCR of the ATSK downstream genes GR60ox2 and CPD", "assay_type": "in vivo, Arabidopsis", "settings": "10 or 50 µM, 6 hr", "method": "[…] Three biological replicates were used for each assay. Harvested seedlings were frozen in liquid nitrogen and crushed with zirconia beads in a Tissue Lyser II, and RNA was isolated with Illustra RNAspin (25‐0500‐72, GE Healthcare). RT‐qPCR was performed as described previously (Nakamichi et al., 2010) using an Eco Real‐Time PCR System (Illumina). Gene expression was normalized against IPP2, and maximal values were set to 1. Primers for detecting IPP2, PRR7, GR60ox2, and CPD were described previously (De Rybel et al., 2009; Kamioka et al., 2016).\nBecause the ATSK family was identified by the molecular probe assay as potential targets of AMI‐331, even though the affinities between AMI‐331 and ATSKs were not as high as between AMI‐331 and CK1, […] affects the expression of genes downstream of ATSKs (De Rybel et al., 2009). […]"}, "CCA1:LUC seedlings [1]": {"test_system": "CCA1:LUC seedlings", "set-up": "method as in Uehara et al., 2019", "settings": "ref Uehara et al., 2019; cited from earlier work"}, "CCA1:LUC seedlings [2]": {"test_system": "CCA1:LUC seedlings", "assay": "Bioluminescence-based circadian period lengthening in CCA1:LUC seedlings", "assay_type": "in vivo, Arabidopsis thaliana", "settings": "for Period‐lengthening activity (in words) / Concentration required for 2‐hr period lengthening (2hLC) / Concentration required for 5‐hr period lengthening (5hLC): CCA1:LUC seedlings; for Concentration required for 2‐hr period lengthening (2hLC) / Concentration required for 5‐hr period lengthening (5hLC): constant light", "method": "Bioluminescence‐based circadian rhythms of CCA1:LUC plants treated with small molecules were analyzed by auto‐luminescence detection (Churitsu CL96) as described previously (Uehara et al., 2019). Period length was automatically calculated as previously described (Kamioka et al., 2016).\nTo estimate CK1 inhibitor activity in vivo, we choose to measure circadian period‐lengthening activity in Arabidopsis seedlings. The assay was made more efficient by monitoring the circadian period using a clock reporter plant line (CCA1:LUC) and an automated luminometer. These tools can be used to measure the circadian period with high confidence, and estimates of in vivo CK1 inhibitor activity are quantitative (Uehara et al., 2019). Four‐day‐old CCA1:LUC seedlings grown under 12‐hr light/12‐hr dark conditions were treated with IC261, PF‐670462, and PHA767491 at different concentrations, and seedling luminescence was monitored under constant light conditions. Dimethyl sulfoxide (DMSO), the solvent used for all of the CK1 inhibitors, was used as a control. IC261 lengthened the circadian period of CCA1:LUC seedlings in a dose‐dependent manner (Figure 1d), with a 2‐hr period lengthening at 500 µM. PF‐670462 and PHA767491 treatment concentrations also correlated with period lengthening (Figure 1e and f). The concentrations required for 2‐hr lengthening effects were 90 µM for PF‐670472 and 47 µM for PHA767491, which was consistent with previous work (Uehara et al., 2019). Thus, PHA767491 was the strongest in vivo CK1 inhibitor among the three inhibitors tested."}, "Recombinant CKL4 kinase": {"target": "T1, Recombinant CKL4 kinase (Arabidopsis thaliana, UniProt Q8LPI7)", "T1 sequence (Q8LPI7 1-414)": "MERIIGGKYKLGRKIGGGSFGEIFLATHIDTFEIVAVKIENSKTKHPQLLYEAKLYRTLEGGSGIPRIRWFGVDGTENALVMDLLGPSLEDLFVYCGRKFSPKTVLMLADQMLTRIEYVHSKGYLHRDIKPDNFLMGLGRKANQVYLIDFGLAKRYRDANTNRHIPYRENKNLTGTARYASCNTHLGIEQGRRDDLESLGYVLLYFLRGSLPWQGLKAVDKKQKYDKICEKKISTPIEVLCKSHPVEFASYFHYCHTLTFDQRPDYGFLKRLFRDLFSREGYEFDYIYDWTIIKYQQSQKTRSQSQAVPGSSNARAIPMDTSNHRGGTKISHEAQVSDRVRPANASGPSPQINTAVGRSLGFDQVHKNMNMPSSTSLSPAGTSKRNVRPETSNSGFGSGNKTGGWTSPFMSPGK", "assay": "In vitro phosphorylation assay of CKL4 (32P phosphorylation of casein)", "assay_type": "biochemical", "method": "In vitro phosphorylation assays using recombinant CKL4 were performed as described previously (Uehara et al., 2019), with synthetic small molecules. IC261 and PF‐670462 were purchased (Sigma‐Aldrich catalog numbers I0658 and SML0795, respectively). PHA767491 was synthesized as previously described (Uehara et al., 2019). All chemical compounds were dissolved in dimethyl sulfoxide (DMSO) as 10 mM stock solutions. Stock solutions were diluted with DMSO to the working concentration and added to assays in kinase reaction buffer (Uehara et al., 2019).\nThe activities of three known CK1 inhibitors were measured in vitro by a previously reported method (Uehara et al., 2019). Recombinant CKL4 kinase, casein, ^32P‐ATP, and different concentrations of the inhibitors were combined in a reaction buffer and kept at 37°C for 2 hr. Resulting samples were separated on a polyacrylamide gel by electrophoresis, and ^32P phosphorylation of casein was measured as an indicator of CKL4 kinase activity. IC50 (half‐maximal inhibitory concentration) was determined by calculating the results from at least two independent experiments. […] The stronger in vitro CK1 inhibitory activity shown by PF‐670462 relative to PHA767491 was consistent with previous reports (Uehara et al., 2019)."}, "PRR5 and TOC1": {"test_system": "PRR5 and TOC1", "set-up": "method as in Uehara et al., 2019", "settings": "ref Uehara et al., 2019; cited from earlier work"}, "[3]": {"settings": "recombinant CKL4, casein, 32P‐ATP, 37°C for 2 hr, read-out: IC50 for in vitro CKL4 kinase activity"}}, "note": "Entries after “also recorded” stand apart in the source; their conditions may differ. Where two headings read alike, the source gives them in different places."}
{"smiles": "O=C(O)CCC(=O)Nc1ccc(Br)cn1", "note": "[Bikinin, reference compound]", "values": [{"measurement": "PRR7 transcript abundance", "setting": "PRR7", "value": "did not affect"}, {"measurement": "GR60ox2 and CPD transcript abundance", "setting": "GR60ox2 and CPD", "value": "reduced"}, {"measurement": "Period lengthening on inhibition of ATSKs", "setting": "CCA1:LUC seedlings [1]", "value": "did not result in period lengthening"}]}
{"smiles": "O=C1NCCc2[nH]c(-c3ccncc3)c(Cl)c21", "note": "[AMI‐24]", "values": [{"measurement": "Period‐lengthening activity (in words)", "setting": "CCA1:LUC seedlings [2]", "value": "Strong activities"}]}
{"smiles": "C#CCn1c(-c2ccncc2)cc2c1CCNC2=O", "note": "[AMI‐212]", "values": [{"measurement": "IC50", "setting": "Recombinant CKL4 kinase; [3]", "value": 1200, "unit": "nM"}, {"measurement": "Period‐lengthening activity (in words)", "setting": "CCA1:LUC seedlings [2]", "value": "weak period‐lengthening activity; also recorded: stronger period‐lengthening activity than AMI‐126"}, {"measurement": "Concentration required for 2‐hr period lengthening (2hLC)", "setting": "CCA1:LUC seedlings [2]", "value": "around 7.0 µM"}, {"measurement": "Concentration required for 5‐hr period lengthening (5hLC)", "setting": "CCA1:LUC seedlings [2]", "value": 26, "unit": "µM"}, {"measurement": "Concentration required for 2‐hr period lengthening (2hLC)", "setting": "CCA1:LUC seedlings [2]; listed as AMI-212", "value": 7.0, "unit": "µM"}, {"measurement": "Period‐lengthening (in vivo inhibitory) activity relative to PHA767491", "setting": "CCA1:LUC seedlings [2]; compared with parent PHA767491", "value": "approximately fivefold higher"}]}
{"smiles": "CCn1c(-c2ccncc2)cc2c1CCNC2=O", "note": "[AMI‐126]", "values": [{"measurement": "Period‐lengthening activity (in words)", "setting": "CCA1:LUC seedlings [2]", "value": "strong activity"}]}
{"smiles": "Nc1nccc(-c2c(-c3ccc(F)cc3)ncn2C2CCCCC2)n1", "note": "[PF‐670462, reference compound]", "values": [{"measurement": "IC50", "setting": "Recombinant CKL4 kinase; [3]", "value": 800, "unit": "nM"}]}
{"smiles": "COc1cc(OC)c(C=C2C(O)=Nc3ccccc32)c(OC)c1", "note": "[IC261, reference compound]", "values": [{"measurement": "IC50", "setting": "Recombinant CKL4 kinase", "value": 6700, "unit": "nM"}]}
{"smiles": "Cc1c(-c2ccncc2)[nH]c2c1C(=O)NCC2", "note": "[AMI‐217]", "values": [{"measurement": "Period‐lengthening activity (in words)", "setting": "CCA1:LUC seedlings [2]", "value": "Strong activities"}]}
{"smiles": "Cl.O=C1NCCc2[nH]c(-c3ccncc3)cc21", "note": "[PHA767491, 1,5,6,7‐tetrahydro‐2‐(4‐pyridinyl)‐4H‐pyrrolo[3,2‐c]pyridin‐4‐one hydrochloride]", "values": [{"measurement": "IC50", "setting": "Recombinant CKL4 kinase; [3]", "value": 5900, "unit": "nM"}, {"measurement": "Effective concentration of PHA767491 as CK1 inhibitor in plants", "setting": "CCA1:LUC seedlings [1]", "value": "more than 40 µM"}, {"measurement": "Effective concentrations for PRR5 or TOC1 accumulation", "setting": "PRR5 and TOC1", "value": "250 to 500", "unit": "µM"}]}
{"smiles": "O=C1NCCc2[nH]c(-c3ccncc3)c(Br)c21", "note": "[AMI‐23]", "values": [{"measurement": "IC50", "setting": "Recombinant CKL4 kinase; [3]", "value": 700, "unit": "nM"}, {"measurement": "Period‐lengthening activity (in words)", "setting": "CCA1:LUC seedlings [2]", "value": "Strong activities"}, {"measurement": "Concentration required for 2‐hr period lengthening (2hLC)", "setting": "CCA1:LUC seedlings [2]", "value": 1.5, "unit": "µM"}, {"measurement": "Concentration required for 5‐hr period lengthening (5hLC)", "setting": "CCA1:LUC seedlings [2]", "value": 5.0, "unit": "µM"}]}
{"smiles": "Cl.O=C1NCCc2c1cc(-c1ccncc1)n2CCn1cccc1", "note": "[AMI‐118]", "values": [{"measurement": "Period‐lengthening activity (in words)", "setting": "CCA1:LUC seedlings [2]", "value": "weak period‐lengthening activity"}]}
